# Experimental data taken from paper PMC9656319, “Pharmacokinetics and Tissue Distribution of Coumarins from Tagetes lucida in an LPS-Induced Neuroinflammation Model” (Plants, 2022).
# How the values were obtained:
# [1] = Stability of the analytes in spiked plasma, brain, kidney and spleen matrices (autosampler, long-term, freeze-thaw); format: physicochemical, mice; settings: for Stability Autosampler RE (%): processed samples in autosampler vials 24 h room temperature; for Stability Freeze-Thaw RE (%): three cycles (−4 °C to 25 °C); for Stability Long-Term RE (%): −70 °C for 30 days
# Experimental: The stability of the compounds obtained from each enriched matrices at the QC concentrations was evaluated under different conditions that covered the processing, handling, and storage phases that could be developed throughout the study.
# Individual stock solutions of PE, SC, DF, HR, PU, and rutin (IS) were prepared separately in methanol (1 mg/mL) and stored at −4 °C until use. From the stocks, a working solution in methanol was prepared at a concentration of 200 µg/mL of each coumarin. Blank plasma or organs supernatant samples (80 µL) were spiked with 20 µL of serial dilutions of working solution to obtain calibration curves ranging between 0.156, 0.312, 0.625, 1.25, 2.5, 5, 10, 20, and 40 µg/mL of each coumarin. Quality control (QC) samples were prepared at three levels of 0.3 (low), 3 (medium), and 30 (high) µg/mL for each coumarin.
# The stability of the analytes in plasma, brain, kidneys, and spleen was evaluated by the analyzed concentrations of QC subjected to three different conditions. Short-term stability was determined by analysis of samples processed in the autosampler vials at 24 h at room temperature. Long-term stability was tested on samples stored at −70 °C for 30 days. Freeze-thaw stability was determined after three cycles (−4 °C to 25 °C) on three consecutive days.
# [2] = parameters: method as in PMID 22465507; settings: rats, distribution of SC in different organs; cited from earlier work
# [3] = Pharmacokinetic study in plasma after oral hexanic extract of Tagetes lucida, healthy and LPS-damaged mice; format: in vivo, ICR mice; settings: plasma; for Cmax / AUC(0-inf) / MRT / Tmax / half-life / AUC(0-t): ICR, mouse, po, 10 mg/kg; for Cmax / AUC(0-inf) / MRT / Tmax / half-life / AUC(0-t) / Cl/F: 10 mg/kg oral hexanic extract, mean ± SEM (n = 5); for Cmax: non-compartmental; for AUC(0-t): to 6 h
# Experimental: The optimized HPLC-validated method for the quantification of coumarins present in the hexane extract of T. lucida was used to evaluate the concentration profiles over time in the plasma, brain, kidney, and spleen biological matrices after an oral administration of 10 mg/kg of the extract.
# Blood samples were obtained from the retro-orbital sinus of mice and collected in heparinized tubes. Plasma was separated by centrifugation at 3500 rpm for 5 min and stored in new Eppendorf tubes at −70 °C, until further processing.
# (§1) One hundred microliters of plasma and organs samples, spiked with calibration and QC concentration or samples from the pharmacokinetic study, were mixed with 300 µL of acetonitrile containing the IS at 10 µg/mL for protein precipitation, and vortexed for 3 min. Then, 200 µL of dichloromethane were added, for liquid–liquid extraction of the bioactive compounds, and vortexed for 5 min. The mixture was centrifuged at 14,000 rpm for 10 min, and the extracted organic layers were placed in new tubes, until completely dry at room temperature. For quantitative analysis, samples were resuspended in 100 µL of methanol, transferred to sampling vials, and injected into the chromatographic system, described below.
# A pharmacokinetic study was carried out in sixty mice, divided in six subgroups, according to sample collection times. An acute inflammation process by the intraperitoneal (i.p.) administration of LPS at 2 mg/kg was induced in half of the mice per group, while the other half received an i.p. injection of saline solution. Ten min after the damage was induced, the mice were administered with an oral dose of 10 mg/kg of the bioactive fraction dissolved in a 1% Tween-20 aqueous solution. Blood and tissue samples were obtained and processed at 0, 0.25, 0.75, 1.5, 2, 4, and 6 h post-dosing, as indicated in the “Samples collection” and “Plasma and tissue samples processing” sections.
# Pharmacokinetic parameters of PE, SC, DF, HR, and PU in plasma were calculated by PKSolver software.
# [4] = Tissue distribution in the brain after oral hexanic extract of Tagetes lucida, healthy and LPS-administrated mice; format: in vivo, ICR mice; settings: after the initial absorption process
# Experimental: After blood sampling, the mice were sacrificed in a chamber with chloroform by an overdose of anesthesia. The brain, kidney, and spleen were quickly removed and rinsed with saline solution, fresh weight was recorded, and immediately placed on ice. Subsequently, the organs were freeze-dried, grounded, and weighted. The lyophilized organs were individually suspended in methanol in a 1:1 volume: dry weight ratio for 24 h, then sonicated for 5 min and centrifuged at 14,000 rpm for 7 min. The supernatants were recovered in clean tubes and stored at −70 °C until their use.
# as §1
# A pharmacokinetic study was carried out in sixty mice, divided in six subgroups, according to sample collection times. An acute inflammation process by the intraperitoneal (i.p.) administration of LPS at 2 mg/kg was induced in half of the mice per group, while the other half received an i.p. injection of saline solution. Ten min after the damage was induced, the mice were administered with an oral dose of 10 mg/kg of the bioactive fraction dissolved in a 1% Tween-20 aqueous solution. […]
# To evaluate the distribution in the tissues, bioactive coumarins were quantified in the lyophilized organs, and concentrations were adjusted to the volumes of liquid obtained by the difference between the dry and fresh weights of each tissue to simulate a distribution approximation of the compounds by tissue system.
smiles,measurement,setting,value
"COc1cc2ccc(=O)oc2cc1OC [SC, scoparone]",Stability Autosampler RE (%),"[1]; brain, nominal 0.3 µg/mL",-2.15%
same,Stability Freeze-Thaw RE (%),"[1]; brain, nominal 0.3 µg/mL",-1.98%
same,Stability Long-Term RE (%),"[1]; brain, nominal 0.3 µg/mL",-0.19%
same,Stability Autosampler RE (%),"[1]; brain, nominal 3.0 µg/mL",0.37%
same,Stability Freeze-Thaw RE (%),"[1]; brain, nominal 3.0 µg/mL",-3.09%
same,Stability Long-Term RE (%),"[1]; brain, nominal 3.0 µg/mL",-0.94%
same,Stability Autosampler RE (%),"[1]; brain, nominal 30.0 µg/mL",4.78%
same,Stability Freeze-Thaw RE (%),"[1]; brain, nominal 30.0 µg/mL",-2.00%
same,Stability Long-Term RE (%),"[1]; brain, nominal 30.0 µg/mL",-4.75%
same,Stability Autosampler RE (%),"[1]; kidney, nominal 0.3 µg/mL",7.01%
same,Stability Freeze-Thaw RE (%),"[1]; kidney, nominal 0.3 µg/mL",2.62%
same,Stability Long-Term RE (%),"[1]; kidney, nominal 0.3 µg/mL",3.92%
same,Stability Autosampler RE (%),"[1]; kidney, nominal 3.0 µg/mL",5.72%
same,Stability Freeze-Thaw RE (%),"[1]; kidney, nominal 3.0 µg/mL",1.51%
same,Stability Long-Term RE (%),"[1]; kidney, nominal 3.0 µg/mL",2.63%
same,Stability Autosampler RE (%),"[1]; kidney, nominal 30.0 µg/mL",-0.35%
same,Stability Freeze-Thaw RE (%),"[1]; kidney, nominal 30.0 µg/mL",0.49%
same,Stability Long-Term RE (%),"[1]; kidney, nominal 30.0 µg/mL",4.36%
same,Stability Autosampler RE (%),"[1]; plasma, nominal 0.3 µg/mL",10.18%
same,Stability Freeze-Thaw RE (%),"[1]; plasma, nominal 0.3 µg/mL",-14.02%
same,Stability Long-Term RE (%),"[1]; plasma, nominal 0.3 µg/mL",-3.50%
same,Stability Autosampler RE (%),"[1]; plasma, nominal 3.0 µg/mL",8.27%
same,Stability Freeze-Thaw RE (%),"[1]; plasma, nominal 3.0 µg/mL",2.70%
same,Stability Long-Term RE (%),"[1]; plasma, nominal 3.0 µg/mL",-14.30%
same,Stability Autosampler RE (%),"[1]; plasma, nominal 30.0 µg/mL",4.74%
same,Stability Freeze-Thaw RE (%),"[1]; plasma, nominal 30.0 µg/mL",-0.10%
same,Stability Long-Term RE (%),"[1]; plasma, nominal 30.0 µg/mL",-8.41%
same,Stability Autosampler RE (%),"[1]; spleen, nominal 0.3 µg/mL",-7.70%
same,Stability Freeze-Thaw RE (%),"[1]; spleen, nominal 0.3 µg/mL",-9.57%
same,Stability Long-Term RE (%),"[1]; spleen, nominal 0.3 µg/mL",-9.67%
same,Stability Autosampler RE (%),"[1]; spleen, nominal 3.0 µg/mL",-6.71%
same,Stability Freeze-Thaw RE (%),"[1]; spleen, nominal 3.0 µg/mL",-2.65%
same,Stability Long-Term RE (%),"[1]; spleen, nominal 3.0 µg/mL",2.22%
same,Stability Autosampler RE (%),"[1]; spleen, nominal 30.0 µg/mL",-0.99%
same,Stability Freeze-Thaw RE (%),"[1]; spleen, nominal 30.0 µg/mL",-4.22%
same,Stability Long-Term RE (%),"[1]; spleen, nominal 30.0 µg/mL",-2.12%
same,quantification of the coumarin inside the brain,[2],not possible to quantify
same,Cmax,[3]; LPS-damaged ICR mice (LPS 2 mg/kg i.p.),1.28 ± 0.11 µg/mL
same,AUC(0-inf),[3]; LPS-damaged ICR mice,2.78 ± 0.21 µg·h/mL
same,MRT,[3]; LPS-damaged ICR mice,2.26 ± 0.17 h
same,Tmax,[3]; LPS-damaged ICR mice,0.7 ± 0.34 h
same,half-life,[3]; LPS-damaged ICR mice,0.65 ± 0.06 h
same,AUC(0-t),[3]; LPS-damaged ICR mice,2.77 ± 0.21 µg·h/mL
same,AUC(0-inf),[3]; healthy ICR mice,4.03 ± 0.63 µg·h/mL
same,MRT,[3]; healthy ICR mice,4.68 ± 1.16 h
same,Tmax,[3]; healthy ICR mice,1.25 ± 0.25 h
same,half-life,[3]; healthy ICR mice,2.88 ± 0.83 h
same,Cmax,[3]; healthy ICR mice,0.97 ± 0.1 µg/mL
same,AUC(0-t),[3]; healthy ICR mice,2.87 ± 0.09 µg·h/mL
same,pharmacokinetic characteristics in words,"[3]; LPS-treated mice, Figure 3b, 3c",fast distribution and subsequent elimination
same,Cl/F,[3]; LPS-damaged ICR mice,36.52 ± 2.68 (mg/kg)/(μg/mL)/h
same,Cl/F,[3]; healthy ICR mice,26.64 ± 3.00 (mg/kg)/(μg/mL)/h
same,time at which the highest concentration in the brain tissue is reached,[4],15 min
